For one experiment, the system named is Dengue. The experiment in a line: Dengue viral replication assay, secondary CPE/virus yield reduction (VYR). It is filed as cell-based. The conditions noted are these: read-out: cellular activity against Dengue (EC90). On the procedure:
Primary cytopathic effect (CPE) reduction assay. Four-concentration CPE inhibition assays are performed. Confluent or near-confluent cell culture monolayers in 96-well disposable microplates are prepared. Cells are maintained in MEM or DMEM supplemented with FBS as required for each cell line. For antiviral assays the same medium is used but with FBS reduced to 2% or less and supplemented with 50 μg/ml gentamicin. The test compound is prepared at four log 10 final concentrations, usually 0.1, 1.0, 10, and 100 μg/ml or μM. The virus control and cell control wells are on every microplate. In parallel, a known active drug is tested as a positive control drug using the same method as is applied for test compounds. The positive control is tested with each test run. The assay is set up by first removing growth media from the 96-well plates of cells. Then the test compound is applied in 0.1 ml volume to wells at 2× concentration. […] The dye content in each well is quantified using a 96-well spectrophotometer at 540 nm wavelength. […]
Secondary CPE/Virus yield reduction (VYR) assay. […] The incorporated dye content is quantified as described above. […] Compounds observed to be active above are further evaluated by VYR assay. […] Wells are scored for presence or absence of virus after distinct CPE (measured by neutral red uptake) is observed. […]
For the molecule `CC(=O)N[C@@H](CCCNC(=N)N)C(=O)N[C@H](C(=O)N[C@@H](Cc1ccc(N=C(N)N)cc1)C(=O)NCc1ccc(C(=N)N)cc1)C(C)C` [Compound A], the EC90 was 14000 nM.

The target of the next experiment is T1, Furin (Homo sapiens, UniProt P09958).
T1 construct: Purification of Soluble Furin; inferred from purification by Ni2+-chelating chromatography and imidazole elution; made in house; host or cells: MDCK cells (furin-overexpressing), secreted into culture medium
T1 sequence (P09958 108-715 limits assumed): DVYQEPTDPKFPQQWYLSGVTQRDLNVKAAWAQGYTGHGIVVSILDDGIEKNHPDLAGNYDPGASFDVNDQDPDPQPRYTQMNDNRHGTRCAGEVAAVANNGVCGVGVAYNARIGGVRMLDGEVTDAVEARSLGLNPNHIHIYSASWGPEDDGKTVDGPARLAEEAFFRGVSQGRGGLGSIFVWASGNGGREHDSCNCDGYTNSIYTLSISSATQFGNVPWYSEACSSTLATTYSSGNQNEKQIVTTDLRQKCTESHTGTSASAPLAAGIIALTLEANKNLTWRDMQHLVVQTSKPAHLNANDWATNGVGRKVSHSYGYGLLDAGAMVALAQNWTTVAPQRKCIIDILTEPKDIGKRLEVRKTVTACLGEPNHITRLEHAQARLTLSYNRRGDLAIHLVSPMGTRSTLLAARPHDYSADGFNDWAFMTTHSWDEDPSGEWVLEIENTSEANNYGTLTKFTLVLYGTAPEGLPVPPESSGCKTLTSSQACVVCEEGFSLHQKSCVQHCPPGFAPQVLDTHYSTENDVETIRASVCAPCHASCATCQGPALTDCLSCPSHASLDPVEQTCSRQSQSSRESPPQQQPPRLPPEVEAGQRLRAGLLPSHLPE
The experiment in a line: Furin enzymatic assay, IC50 determination with Pyr-RTKR-AMC substrate. It is filed as biochemical. Particulars: furin 50 nM, Pyr-RTKR-AMC 25 μM, 30 min preincubation; read-out: IC50 against Furin. On the procedure: Furin-overexpressing MDCK cells were grown using 15 cm plates (Falcon) in DMEM/High modified synthetic media (Thermo Scientific) supplemented with Gentamicin (10 μg/ml). Each two days the medium was collected. Cells were replenished with fresh medium. To remove cell debris, the collected samples were spun at 3000×g and the supernatant fraction was filtered through a 0.22 μm filter (Corning) and then 100-fold concentrated using a Pellicon XL Biomax 10 concentrator (Millipore). Furin was isolated from the concentrated medium samples using Ni^2+-chelating chromatography on a HiTrap Chelating HP 1.6×2.5 cm column (Amersham Biosciences) equilibrated with 20 mM Tris-HCl buffer, pH 8.0, containing 1M NaCl. To remove the impurities, the column was washed with 50 ml of the same buffer containing 25 mM imidazole. Furin was eluted using 500 mM imidazole. The purified fractions were pooled, concentrated using an Amicon Ultra 50K-cutoff membrane (Millipore), dialyzed against PBS and stored at −80° C. According to SDS-PAGE followed by Coomassie staining of the gel, Western blotting and enzyme activity assays the purity of the isolated furin samples was >95%. The typical yield of purified furin was 0.8-1 mg/liter of cell culture medium. Specific activity of purified furin was >120 units where one unit is the amount of furin that will cleave 1.0 pmol methyl-coumaryl-7-amide (AMC) from the Pyr-Arg-Thr-Lys-Arg-methyl-coumaryl-7-amide (Pyr-RTKR-AMC) substrate per min at ambient temperature, pH 7.5.
Furin activity was measured in triplicate in wells of a 96-well plate in 0.2 ml 50 mM HEPES, pH 7.5, containing 1 mM CaCl2, 0.005% Brij-35 and 20% glycerol. Pyr-RTKR-AMC (25 μM) was used as a substrate. The concentration of furin in the reactions was 50 nM. The steady-state rate of substrate hydrolysis was monitored continuously (λex=360 nm and λem=465 nm) at 37° C. using a Spectramax Gemini EM fluorescent spectrophotometer (Molecular Devices).
Furin (50 nM) was preincubated for 30 min at 20° C. with increasing concentrations of the individual compounds in 0.1 ml of 50 mM HEPES, pH 7.5, containing 1 mM CaCl2, 20% glycerol and 0.005% Brij 35. The Pyr-RTKR-AMC substrate ([…]) was added in 0.1 ml of the same buffer. Reaction velocity was monitored continuously at λex=360 nm and λem=465 nm on a Spectramax Gemini EM fluorescence spectrophotometer. All assays were performed in triplicate in wells of a 96-well plate. IC50 values were calculated by determining the concentrations of the compounds needed to inhibit 50% of the furin activity against Pyr-RTKR-AMC substrate. GraphPad Prism was used as fitting software.
Consider `CC(=O)N[C@@H](CCCNC(=N)N)C(=O)N[C@H](C(=O)N[C@@H](Cc1ccc(N=C(N)N)cc1)C(=O)NCc1ccc(C(=N)N)cc1)C(C)C` [Compound A], for which the IC50 amounted to 7 nM.

Take `CC(=O)N[C@@H](CCCNC(=N)N)C(=O)N[C@H](C(=O)N[C@@H](Cc1ccc(N=C(N)N)cc1)C(=O)NCc1ccc(/C(N)=N/O)cc1)C(C)C` [Compound D]: the IC50 was determined as 1200 nM.

With `CC(C)[C@H](NS(=O)(=O)Cc1ccc(C(=N)N)cc1)C(=O)N[C@@H](CCCNC(=N)N)C(=O)NCc1ccc(C(=N)N)cc1` [Compound E], the IC50 stood at 300 nM.

For `CC(=O)N[C@@H](CCCNC(=N)N)C(=O)N[C@H](C(=O)N[C@@H](Cc1ccc(N=C(N)N)cc1)C(=O)NCc1ccc(C(=N)N)cc1F)C(C)C` [Compound C], the IC50 turned out to be 9 nM.

In the case of `CC(=O)N[C@@H](CCCNC(=N)N)C(=O)N[C@H](C(=O)N[C@@H](Cc1ccc(N=C(N)N)cc1)C(=O)NCc1ccc(C(=N)N)c(F)c1)C(C)C` [Compound B], the 50% inhibitory concentration (IC50) was 3.7 nM.

What is called EC90 is the concentration at which the effect reaches the 90% level. As usually defined, the IC50 is the concentration needed to halve the response being measured.

Source of the values: patent publication US20150051138A1, “INHIBITORS OF FURIN AND OTHER PRO-PROTEIN CONVERTASES” (Sanford-Burnham Medical Research Institute, priority 2012, published 2015).
